Measured values: the supplement of paper PMC4862054

Columns and labels:
MDA-MB-436 [1] = settings: 72 h
Outline: (§1)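 Viability of breast cancer cell lines was measured with CellTiter-Blue after 72 h of incubation on compound-loaded 384-well plates. Cells were seeded in 20 µl onto compound dissolved in 5 µl medium, and 2.5 µl reagent was added for 2 h at 37 °C before reading at 560/590 nm. EC50 was fitted from percent-inhibition dose-response data censored at the highest concentration, normalised per plate to vehicle and a positive kill control, with zero drug sensitivity score rows dropped.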

BT-549 [2] = settings: 72 h
Outline: as §1

Hs578T [3] = settings: 72 h
Outline: as §1

DU-4475 [4] = settings: 72 h
Outline: as §1

CAL-51 [5] = settings: 72 h
Outline: as §1

MDA-MB-453 [6] = settings: 72 h
Outline: as §1

CAL-120 [7] = test: drug sensitivity score (DSS), CellTox Green (DSS (AUC-based score)); higher = stronger drug effect (viability inhibition or cytotoxicity); extreme values may be limits of the assay; settings: incubation time: 72 h
Outline: (§2)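 Each compound occupied 5 concentrations in 10-fold steps over its own 10,000-fold range in 384-well plates, into which breast cancer cell lines were seeded as 20 µl suspension. Following 72 h of incubation, CellTox Green fluorescence (485/520 nm) was measured, and CellTiter-Glo luminescence was measured after 10 min at room temperature. Plates were individually normalised to 0.1 % DMSO and a positive kill control. From the area under the fitted dose-response curve, a drug sensitivity score was calculated.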

HCC1599 [8] = test: as above; settings: incubation time: 72 h
Outline: as §2

MDA-MB-468 = test: as above; settings: incubation time: 72 h
Outline: as §2

DU-4475 [9] = settings: 72 h; remark: listed apart in the source
Outline: (§3)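 Seeding of breast cancer cell lines (20 µl suspension) was done into 384-well plates pre-loaded with compound at 5 concentrations, 10-fold apart, covering a compound-specific 10,000-fold range. The plates were incubated for 72 h, read for CellTox Green fluorescence (485/520 nm), and then read for CellTiter-Glo luminescence after 10 min at room temperature. Every plate was normalised to 0.1 % DMSO and a positive kill control. Curve fitting gave the EC50, censored at the top concentration.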

CAL-85-1 = settings: 72 h
Outline: as §3

SK-BR-3 = settings: 72 h
Outline: as §3

CAL-148 = settings: 72 h
Outline: as §3

BT-474 = settings: 72 h
Outline: as §3

MDA-MB-436 [10] = settings: 72 h; remark: listed apart in the source
Outline: as §3

HCC1937 = settings: 72 h
Outline: as §3

HCC1599 [11] = settings: 72 h
Outline: as §3

BT-549 [12] = settings: 72 h; remark: listed apart in the source
Outline: as §3

HDQ-P1 = settings: 72 h
Outline: as §3

Hs578T [13] = settings: 72 h; remark: listed apart in the source
Outline: as §3

MDA-MB-231 = settings: 72 h
Outline: as §3

MFM-223 = settings: 72 h
Outline: as §3

CAL-51 [14] = settings: 72 h; remark: listed apart in the source
Outline: as §3

MDA-MB-453 [15] = settings: 72 h; remark: listed apart in the source
Outline: as §3

HCC1143 = settings: 72 h
Outline: as §3

CAL-120 [16] = settings: 72 h
Outline: as §3

MCF-10A = settings: 72 h
Outline: as §3

SMILES | EC50, CellTiter-Blue viability (MDA-MB-436 [1]) | EC50, CellTiter-Blue viability (BT-549 [2]) | EC50, CellTiter-Blue viability (Hs578T [3]) | EC50, CellTiter-Blue viability (DU-4475 [4]) | EC50, CellTiter-Blue viability (CAL-51 [5]) | EC50, CellTiter-Blue viability (MDA-MB-453 [6]) | drug sensitivity score (CAL-120 [7]) | drug sensitivity score (HCC1599 [8]) | drug sensitivity score (MDA-MB-468) | EC50, CellTiter-Glo (DU-4475 [9]) | EC50, CellTiter-Glo (CAL-85-1) | EC50, CellTiter-Glo (SK-BR-3) | EC50, CellTiter-Glo (CAL-148) | EC50, CellTiter-Glo (BT-474) | EC50, CellTiter-Glo (MDA-MB-436 [10]) | EC50, CellTiter-Glo (HCC1937) | EC50, CellTiter-Glo (HCC1599 [11]) | EC50, CellTiter-Glo (BT-549 [12]) | EC50, CellTiter-Glo (HDQ-P1) | EC50, CellTiter-Glo (Hs578T [13]) | EC50, CellTiter-Glo (MDA-MB-231) | EC50, CellTiter-Glo (MFM-223) | EC50, CellTiter-Glo (CAL-51 [14]) | EC50, CellTiter-Glo (MDA-MB-453 [15]) | EC50, CellTiter-Glo (HCC1143) | EC50, CellTiter-Glo (CAL-120 [16]) | EC50, CellTiter-Glo (MCF-10A)
c1ccc2c(CCNc3ccc(Nc4ccncc4)cc3)c[nH]c2c1 [Serdemetan] | 540 nM | 1560 nM | 1540 nM | 4500 nM | 4940 nM | 2980 nM | 0 | 0 | 0 | 2370 nM | 8460 nM | 2780 nM | 2490 nM | 4650 nM | 8140 nM | > 10000 nM | 5240 nM | 1730 nM | 1230 nM | 9710 nM | 6230 nM | > 10000 nM | 315 nM | 8860 nM |  |  | 
CNC(=O)c1cccc(-c2ccc3c(N4CCOC[C@@H]4C)nc(N4CCOC[C@@H]4C)nc3n2)c1 [AZD2014] |  |  |  |  |  |  | 0 | 0 | 0 | 1400 nM | 290 nM | 116 nM | 395 nM | 286 nM | 121 nM | 285 nM | 3620 nM | 228 nM | 120 nM | 459 nM | 316 nM | 123 nM | 131 nM | 195 nM | 366 nM | 224 nM | 493 nM
C=C1C[C@@H]2[C@H](CC[C@]3(C)C(=O)CC[C@@H]23)[C@@]2(C)C=CC(=O)C=C12 [Exemestane] |  |  |  |  |  | 916 nM | 0 | 0 | 0 |  |  |  |  |  |  |  |  |  |  |  |  |  |  |  |  |  | 
CNC(=O)c1ccc(N2C(=S)N(c3ccc(C#N)c(C(F)(F)F)c3)C(=O)C2(C)C)cc1F [Enzalutamide] |  |  |  |  |  |  | 0 | 0 | 0 |  |  |  |  |  |  |  |  |  |  |  |  |  | 48.6 nM | > 10000 nM |  |  | 
COc1cc(O)c2c(c1)/C=C/C[C@H](O)[C@H](O)C(=O)/C=C\C[C@H](C)OC2=O [(5Z)-7-Oxozeaenol] |  |  |  |  |  |  | 0 | 0 | 0 | 173 nM | 605 nM | 6390 nM | 1460 nM | 2160 nM | 1560 nM | 4060 nM | 5830 nM | 548 nM | 2330 nM | 3250 nM | 1430 nM | 2170 nM | 3770 nM | 8350 nM | 7820 nM | 2450 nM | 532 nM
